Source: patent publication US8754226B2, “Piperidinyl-substituted lactams as GPR119 modulators” (Array BioPharma Inc., priority 2010, dated 2014)

System: modified version of the GPR119 receptor (94% identity to human receptor)
Assay: cAMP production assay (LANCE cAMP kit, TR-FRET) in HEK-293 cells
Type: cell-based
Details: for cAMP production in HEK-293 cells: HEK-293 cells stably expressing modified GPR119, test compounds 0.2 nM to 10 μM, one-hour incubation at ambient temperature; for Fold over baseline: increase in cAMP relative to basal levels, agonist activity if 1.5-fold or greater
Experimental: The assay utilized HEK-293 cells that stably express a modified version of the GPR119 receptor (94% identity to human receptor), under the control of a CMV promoter containing a tet-on element for tetracycline-inducible expression. GPR119 agonist-induced cyclic AMP (cAMP) production was measured in this cell line using the LANCE cAMP kit (Perkin Elmer, Waltham, Mass.). To generate a working stock of cells for the assay, cells were treated overnight with 1 μg/mL doxycycline at 37° C. in the presence of 5% CO2 to induce receptor expression. Cells were then harvested by enzymatic dissociation with 0.05% trypsin, resuspended in freezing medium (DMEM growth medium with 10% each of fetal bovine serum and DMSO), aliquoted and frozen at −80° C. On the day of the assay, frozen cells were thawed, washed 1× in PBS and resuspended in Hank's buffered salt solution (HBSS) containing 5 mM HEPES, 0.1% BSA and Alexa Fluor 647-conjugated anti-cAMP antibody (diluted 1:100). The cell suspension was then transferred to a Proxiplate Plus white 384-well assay plate (Perkin-Elmer) at 2000 cells/well. Test compounds at final concentrations ranging from 0.2 nM to 10 μM were added to the assay plate, followed by a one-hour incubation at ambient temperature (volume=10 μL/well). DMSO concentration was held constant at 0.5%. After incubation with test compounds, 10 μL of a detergent buffer containing a biotinylated cAMP/Europium-conjugated streptavidin complex (Europium-labeled cAMP tracer) were added to each well on the assay plate, followed by a 2-hour incubation at ambient temperature. During this incubation cAMP released from lysed cells competes with the Europium-labeled cAMP tracer for binding to the Alexa Fluor 647-conjugated antibody. […] Cellular cAMP levels were then determined by interpolation of raw signal data using a cAMP standard curve. Compounds were determined to have agonist activity if they stimulated a 1.5-fold or greater increase in cAMP relative to basal levels.

| Structure (SMILES) | cAMP production in HEK-293 cells [nmol] | Fold over baseline |
| --- | --- | --- |
| CS(=O)(=O)c1cc(F)c(O[C@H]2CCN(C3CCN(c4ncc(-c5ncccn5)cn4)CC3)C2=O)cc1F [Example 95, (S)-1-(1-(2,5′-bipyrimidin-2′-yl)piperidin-4-yl)-3-(2,5-difluoro-4-(methylsulfonyl)phenoxy)pyrrolidin-2-one] | 9.0 | 2.3 |
| CS(=O)(=O)c1cc(F)c(N[C@H]2CCN(C3CCN(c4ncc(C(F)(F)F)cc4Cl)CC3)C2=O)cc1F [Example 111, (S)-1-(1-(3-chloro-5-(trifluoromethyl)pyridin-2-yl)piperidin-4-yl)-3-(2,5-difluoro-4-(methylsulfonyl)phenyl-amino)pyrrolidin-2-one] | 37.9 | 3.0 |
| CS(=O)(=O)c1ccc(N[C@H]2CCN(C3CCN(c4cnccn4)CC3)C2=O)c(F)c1 [Example 106, (S)-3-(2-fluoro-4-(methylsulfonyl)phenyl-amino)-1-(1-(pyrazin-2-yl)piperidin-4-yl)pyrrolidin-2-one] | 17.8 | 3.0 |
| CCc1cnc(N2CCC(N3CCCC(Nc4ccc(S(C)(=O)=O)cc4F)C3=O)CC2)c(C)c1 (centres unmarked) [Example 77, 1′-(5-ethyl-3-methylpyridin-2-yl)-3-(2-fluoro-4-(methylsulfonyl)phenylamino)-[1,4′-bipiperidin]-2-one] | 21.3 | 2.5 |
| Cc1cc(S(C)(=O)=O)ncc1N[C@H]1CCN(C2CCN(c3ncc(Cl)cc3F)CC2)C1=O [Example 121, (S)-1-(1-(5-chloro-3-fluoropyridin-2-yl)piperidin-4-yl)-3-(4-methyl-6-(methylsulfonyl)pyridin-3-ylamino) pyrrolidin-2-one] | 10.6 | 2.5 |
| CS(=O)(=O)c1ccc(N[C@H]2CCN(C3CCN(c4ncc(Cl)nc4Cl)CC3)C2=O)c(F)c1 [Example 147, (S)-1-(1-(3,5-dichloropyrazin-2-yl)piperidin-4-yl)-3-(2-fluoro-4-(methylsulfonyl)phenylamino)pyrrolidin-2-one] | 46.4 | 3.6 |
| CCc1cnc(N2CCC(N3CCC[C@H](Nc4ccc(S(C)(=O)=O)cc4C(F)(F)F)C3=O)CC2)nc1 [Example 55, (S)-1′-(5-ethylpyrimidin-2-yl)-3-(4-(methylsulfonyl)-2-(trifluoromethyl)phenylamino)-[1,4′-bipiperidin]-2-one] | 9.3 | 2.6 |
| CS(=O)(=O)c1ccc(N[C@H]2CCN(C3CCN(c4ncc(-c5ccccc5)cn4)CC3)C2=O)c(F)c1 [Example 9, (S)-3-(2-fluoro-4-(methyl-sulfonyl)phenylamino)-1-(1-(5-phenylpyrimidin-2-yl)piperidin-4-yl)pyrrolidin-2-one] | 13.5 | 2.3 |
| CSc1cnc(N2CCC(N3CC[C@H](Nc4ccc(S(C)(=O)=O)cc4F)C3=O)CC2)nc1 [Example 30, (S)-3-(2-fluoro-4-(methylsulfonyl)phenylamino)-1-(1-(5-(methylthio)pyrimidin-2-yl)piperidin-4-yl)pyrrolidin-2-one] | 6.6 | 2.0 |
| Cc1ccccc1-c1cnc(N2CCC(N3CC[C@H](Oc4cc(F)c(S(C)(=O)=O)cc4F)C3=O)CC2)nc1 [Example 93, (S)-3-(2,5-difluoro-4-(methylsulfonyl)phenoxy)-1-(1-(5-o-tolylpyrimidin-2-yl)piperidin-4-yl)pyrrolidin-2-one] | 11.1 | 2.2 |
| CS(=O)(=O)c1ccc(N[C@H]2CCCN(C3CCN(c4ncc(C(F)(F)F)cc4F)CC3)C2=O)c(F)c1 [Example 146, (S)-3-(2-fluoro-4-(methylsulfonyl)phenyl-amino)-1′-(3-fluoro-5-(trifluoromethyl)pyridin-2-yl)-1,4′-bipiperidin-2-one] | 34.6 | 2.6 |
| O=C1[C@@H](Nc2ccc(S(=O)(=O)C3CC3)nc2)CCN1C1CCN(c2cnc(Cl)cn2)CC1 [Example 124, (S)-1-(1-(5-chloropyrazin-2-yl)piperidin-4-yl)-3-(6-(cyclopropylsulfonyl)pyri-din-3-ylamino)pyrrolidin-2-one] | 14.1 | 3.6 |
| CCc1cnc(N2CCC(N3CCC(Oc4ccc(-n5cnnn5)nc4)C3=O)CC2)nc1 (centres unmarked) [Example 66, 3-(6-(1H-tetrazol-1-yl)pyridin-3-yloxy)-1-(1-(5-ethylpyrimidin-2-yl)piperidin-4-yl)pyrrolidin-2-one] | 4.9 | 1.6 |
| CN(C)C(=O)c1cnc(N2CCC(N3CC[C@H](Nc4ccc(S(C)(=O)=O)cc4F)C3=O)CC2)c(Cl)c1 [Example 157, (S)-5-chloro-6-(4-(3-(2-fluoro-4-(methylsulfonyl)phenylamino)-2-oxopyrrolidin-1-yl)piperidin-1-yl)-N,N-dimethylnicotinamide] | 8.3 | 3.1 |
| CCc1cnc(N2CCC(N3CC[C@H](Nc4ccc(S(C)(=O)=O)cc4F)C3=O)CC2)cn1 [Example 89, (S)-1-(1-(5-ethylpyrazin-2-yl)piperidin-4-yl)-3-(2-fluoro-4-(methylsulfonyl)phenyl-amino)pyrrolidin-2-one trifluoroactetate] | 23.1 | 4.8 |
| Cc1cnc(N2CCC(N3CC[C@H](Nc4ccc(S(C)(=O)=O)cc4F)C3=O)CC2)c(C#N)n1 [Example 134, (S)-3-(4-(3-(2-fluoro-4-(methylsulfonyl)phenyl-amino)-2-oxopyrrolidin-1-yl)piperidin-1-yl)-6-methylpyrazine-2-carbonitrile] | 35.7 | 2.7 |
| CS(=O)(=O)c1ccc(N[C@H]2CCN(C3CCN(c4cnc(Cl)cn4)CC3)C2=O)c(F)c1 [Example 4, (S)-1-(1-(5-chloropyrazin-2-yl)piperidin-4-yl)-3-(2-fluoro-4-(methylsulfonyl)phenylamino)pyrrolidin-2-one] | 27.3 | 4.1 |
| CS(=O)(=O)c1ccc(N[C@H]2CCN(C3CCN(c4ncc(-c5cn[nH]c5)cn4)CC3)C2=O)c(F)c1 [Example 31, (S)-1-(1-(5-(1H-pyrazol-4-yl)pyrimidin-2-yl)piperidin-4-yl)-3-(2-fluoro-4-(methylsulfonyl)phenylamino)pyrrolidin-2-one] | 14.5 | 2.9 |
| Cc1cc(S(C)(=O)=O)ncc1N[C@H]1CCN(C2CCN(c3ncc(Cl)cc3C#N)CC2)C1=O [Example 122, (S)-5-chloro-2-(4-(3-(4-methyl-6-(methylsulfonyl)pyridin-3-ylamino)-2-oxopyrrolidin-1-yl)piperidin-1-yl) icotinonitrile] | 6.5 | 1.5 |
| Cc1cc(N[C@H]2CCN(C3CCN(c4cnc(Cl)cn4)CC3)C2=O)c(F)cc1S(C)(=O)=O [Example 1, (S)-1-(1-(5-chloropyrazin-2-yl)piperidin-4-yl)-3-(2-fluoro-5-methyl-4-(methylsulfonyl)phenylamino)pyrrolidin-2-one] | 23.5 | 3.9 |
| CCc1cnc(N2CCC(N3CC[C@H](Nc4cc5c(cc4Cl)C(=O)CCO5)C3=O)CC2)nc1 [Example 36] | 17.4 | 3.2 |
| O=C1[C@@H](Nc2ncc(C(F)(F)F)cc2Cl)CCN1C1CCN(c2cnc(Cl)cn2)CC1 [Example 22, (S)-3-(3-chloro-5-(trifluoromethyl)pyridin-2-ylamino)-1-(1-(5-chloropyrazin-2-yl)piperidin-4-yl)pyrrolidin-2-one] | 32.7 | 5.6 |
| CS(=O)(=O)c1cc(F)c(N[C@H]2CCN(C3CCN(c4cnc(Br)cn4)CC3)C2=O)cc1F [Example 15, (S)-1-(1-(5-bromopyrazin-2-yl)piperidin-4-yl)-3-(2,5-difluoro-4-(methylsulfonyl)phenylamino)pyrrolidin-2-one] | 24.2 | 4.2 |
| CS(=O)(=O)c1cc(F)c(N[C@H]2CCCCN(C3CCN(c4nccnc4C#N)CC3)C2=O)cc1F.Cl [Example 85, (S)-3-(4-(3-(2,5-difluoro-4-(methylsulfonyl)phenylamino)-2-oxoazepan-1-yl)piperidin-1-yl)pyrazine-2-carbonitrile hydrochloride] | 6.5 | 1.9 |
| CCc1cnc(N2CCC(N3CCCC(Nc4ccc(S(C)(=O)=O)cc4F)C3=O)CC2)nc1 (centres unmarked) [Example 62, 1′-(5-ethylpyrimidin-2-yl)-3-(2-fluoro-4-(methylsulfonyl)phenylamino)-[1,4′-bipiperidin]-2-one] | 9.8 | 2.9 |
